In patent US20260216355A1, “ANTIBODY-DRUG CONJUGATE FROM N-OXYCYCLOALKYL SUBSTITUTED CAMPTOTHECIN DERIVATIVE” (priority 2022, published 2026):

Tests used:
[1] = tested on: Human esophageal cancer cells OE-33; assay: In vitro inhibitory activity of ADC against tumor cell growth (CCK-8), OE-33; assay type: cell-based; details: OE-33 cells, 6 days incubation
Source text: (§1) Method for in vitro inhibitory activity assay of ADC: Human esophageal cancer cells OE-33, lung cancer cells NCI-H1975, and breast cancer cells MDA-MB-231 used for activity assays were respectively cultured in RPMI1640 (Cellmax), RPMI1640 (Cellmax), and DMEM (Cellmax) media containing 10% fetal bovine serum (FBS, Cellmax) to the exponential growth phase. After trypsinization, the cells were centrifuged, and the supernatant was discarded. The cells were resuspended with media and diluted to 3×10^4 cells/mL, 0.5×10^4 cells/mL and 1.5×10^4 cells/mL respectively. Then, 100 μL of each cell suspension was added to a 96-well cell culture plate, and the plate was returned to an incubator at 37° C. with 5% CO2 for overnight culture. The next day, the ADC to be tested was diluted to 2000 nM, 400 nM, 80 nM, 16 nM, 3.2 nM, 0.64 nM, 0.128 nM, and 0.026 nM using culture medium. The diluted ADC was added to a 96-well cell culture plate at 100 μL per well, with 3 replicates set for each concentration. For the negative control without ADC and the blank control, 100 μL of culture medium was added to each well. After the sample addition was finished, the plate was returned to the incubator at 37° C. with 5% CO2 for further incubation for 6 days. Upon completion of incubation, the cell culture plate was removed, and the medium in the plate was aspirated using a pipette. 100 μL of medium containing 10% CCK-8 was added to each well, followed by incubation at 37° C. for 3 h. After incubation, the plate was removed, protected from light, placed in a microplate reader, and the absorbance was measured at a test wavelength of 450 nm with a reference wavelength of 630 nm. Based on the absorbance values, the IC50 (Table 1) was calculated using four-parameter regression in GraphPad. The corresponding ADC drug containing Dxd was used as a positive control drug, which has the following structure: […]

[2] = tested on: breast cancer cells MDA-MB-231; assay: In vitro inhibitory activity of ADC against tumor cell growth (CCK-8), MDA-MB-231; assay type: cell-based, Human; details: MDA-MB-231 cells, 6 days incubation
Source text: as §1

[3] = tested on: lung cancer cells NCI-H1975; assay: In vitro inhibitory activity of ADC against tumor cell growth (CCK-8), NCI-H1975; assay type: cell-based, Human; details: 6 days incubation
Source text: as §1

Row | Substance | IC50 [1] | IC50 [2] | IC50 [3]
1 | 7-(N-(HS627-Ac-PEG2-Gly-Lys-PABC), N-((R)-tetrahydrofuran-3-yl)amino)ethyl-10,11-methylenedioxycamptothecin [ADC 13] | 50 to 500 nM | 50 to 500 nM | 50 to 500 nM
2 | 7-(N-(HS627-AcPEG2-Gly-Lys-PABC), N-(tetrahydropyran-4-yl)amino)ethyl-10,11-methylenedioxycamptothecin [ADC 5] | > 250 nM | 50 to 500 nM | 50 to 500 nM
3 | 7-(N-(HS627-AcPEG4-Gly-Lys-PABC), N-(tetrahydropyran-4-yl)amino)ethyl-10,11-methylenedioxycamptothecin [ADC 7] | > 250 nM | 50 to 500 nM | 50 to 500 nM
4 | 7-(N-(HS627-mPEG2-Gly-Lys-PABC), N-(tetrahydropyran-4-yl)amino)ethyl-10,11-methylenedioxycamptothecin [ADC 3] | 5 to 50 nM | 5 to 50 nM | 5 to 50 nM
5 | 7-(N-(HS627-mc-Val-Cit-PABC), N-(tetrahydropyran-4-yl)amino)ethyl-10,11-methylenedioxycamptothecin [ADC 1] | 5 to 50 nM | 50 to 500 nM | 5 to 50 nM
6 | 7-(N-(IP140B-Ac-PEG2-Gly-Lys-PABC), N-((R)-tetrahydrofuran-3-yl)amino)ethyl-10,11-methylenedioxycamptothecin [ADC 14] | 5 to 50 nM | 5 to 50 nM | 5 to 50 nM
7 | 7-(N-(IP140B-Ac-PEG2-Gly-Lys-PABC), N-((S)-tetrahydrofuran-3-yl)amino)ethyl-10,11-methylenedioxycamptothecin [ADC 16] | 50 to 500 nM | 50 to 500 nM | 50 to 500 nM
8 | 7-(N-(IP140B-AcPEG2-Gly-Lys-PABC), N-(tetrahydropyran-4-yl)amino)ethyl-10,11-methylenedioxycamptothecin [ADC 6] | 5 to 50 nM | 50 to 500 nM | 5 to 50 nM
9 | 7-(N-(IP140B-AcPEG4-Gly-Lys-PABC), N-(tetrahydropyran-4-yl)amino)ethyl-10,11-methylenedioxycamptothecin [ADC 8] | 50 to 500 nM | 50 to 500 nM | 50 to 500 nM
10 | 7-(N-(IP140B-Qx-PEG2-Gly-Lys-PABC), N-((R)-tetrahydrofuran-3-yl)amino)ethyl-10,11-methylenedioxycamptothecin [ADC 12] | 5 to 50 nM | 5 to 50 nM | < 5 nM
11 | 7-(N-(IP140B-Qx-PEG2-Gly-Lys-PABC), N-(tetrahydropyran-4-yl)amino)ethyl-10,11-methylenedioxycamptothecin [ADC 10] | 5 to 50 nM | < 5 nM | < 5 nM
12 | 7-(N-(IP140B-mPEG2-Gly-Lys-PABC), N-(tetrahydropyran-4-yl)amino)ethyl-10,11-methylenedioxycamptothecin [ADC 4] | 5 to 50 nM | 5 to 50 nM | 5 to 50 nM
13 | 7-(N-(IP140B-mc-Val-Cit-PABC), N-(tetrahydropyran-4-yl)amino)ethyl-10,11-methylenedioxycamptothecin [ADC 2] | 5 to 50 nM | 5 to 50 nM | < 5 nM
14 | 20-O-(IP140B-Ac-PEG4-daP-NHNHC)-7-(N-(tetrahydropyran-4-yl)amino)ethyl-10,11-methylenedioxycamptothecin [ADC 20] | < 5 nM | < 5 nM | < 5 nM
15 | 20-O-(IP140B-AcPEG2-Gly-Val-Ala-Gly-NHNHC)-7-(N-(tetrahydropyran-4-yl)amino)ethyl-10,11-methylenedioxycamptothecin [ADC 18] | < 5 nM | < 5 nM | < 5 nM
